Test results from PubChem BioAssay (NCI).
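GI50 marks 50% less growth. TGI denotes the concentration required for complete inhibition of growth.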

Columns and labels:
Test in all cases: growth of human tumour cells (NCI), 384-well format
786-0 renal = system: 786-0 renal
A498 renal = system: A498 renal
A549 NSCLC = system: A549 NSCLC
ACHN renal = system: ACHN renal
BT-549 breast = system: BT-549 breast
CAKI-1 renal = system: CAKI-1 renal
COLO 205 colon = system: COLO 205 colon
DU-145 prostate = system: DU-145 prostate
EKVX NSCLC = system: EKVX NSCLC
HCC-2998 colon = system: HCC-2998 colon
HCT-116 colon = system: HCT-116 colon
HCT-15 colon = system: HCT-15 colon
HL-60(TB) leukemia = system: HL-60(TB) leukemia
HOP-62 NSCLC = system: HOP-62 NSCLC
HOP-92 NSCLC = system: HOP-92 NSCLC
HS 578T breast = system: HS 578T breast
HT29 colon = system: HT29 colon
IGROV1 ovarian = system: IGROV1 ovarian
K-562 leukemia = system: K-562 leukemia
KM12 colon = system: KM12 colon
LOX IMVI melanoma = system: LOX IMVI melanoma
M14 melanoma = system: M14 melanoma
MALME-3M melanoma = system: MALME-3M melanoma
MCF7 breast = system: MCF7 breast
MDA-MB-231 breast = system: MDA-MB-231 breast
MDA-MB-435 melanoma = system: MDA-MB-435 melanoma
MDA-MB-468 breast = system: MDA-MB-468 breast
MOLT-4 leukemia = system: MOLT-4 leukemia
NCI-H226 lung = system: NCI-H226 lung
NCI-H23 lung = system: NCI-H23 lung
NCI-H322M lung = system: NCI-H322M lung
NCI-H460 NSCLC = system: NCI-H460 NSCLC
NCI-H522 lung = system: NCI-H522 lung
NCI/ADR-RES ovarian = system: NCI/ADR-RES ovarian
OVCAR-3 ovarian = system: OVCAR-3 ovarian
OVCAR-4 ovarian = system: OVCAR-4 ovarian
OVCAR-5 ovarian = system: OVCAR-5 ovarian
PC-3 prostate = system: PC-3 prostate
RPMI-8226 leukemia = system: RPMI-8226 leukemia
RXF 393 renal = system: RXF 393 renal
SF-268 CNS = system: SF-268 CNS
SF-295 CNS = system: SF-295 CNS
SF-539 CNS = system: SF-539 CNS
SK-MEL-2 melanoma = system: SK-MEL-2 melanoma
SK-MEL-28 melanoma = system: SK-MEL-28 melanoma
SK-MEL-5 melanoma = system: SK-MEL-5 melanoma
SK-OV-3 ovarian = system: SK-OV-3 ovarian
SN12C renal = system: SN12C renal
SNB-19 CNS = system: SNB-19 CNS
SNB-75 CNS = system: SNB-75 CNS
SR leukemia = system: SR leukemia
SW-620 colon = system: SW-620 colon
T-47D breast = system: T-47D breast
TK-10 renal = system: TK-10 renal
U251 glioblastoma = system: U251 glioblastoma
UACC-257 melanoma = system: UACC-257 melanoma
UACC-62 melanoma = system: UACC-62 melanoma
UO-31 renal = system: UO-31 renal

With `O=C(c1ccc(/C=C/c2n[nH]c3ccccc23)cc1)N1CCNCC1` the GI50 ([…]-0 renal) was 10.7 µM, the TGI (786-0 renal) was 22.7 µM and the GI50 (A498 renal) was 13.2 µM. The TGI (A498 renal) was 26 µM, the GI50 (A549 NSCLC) was 1.96 µM and the TGI (A549 NSCLC) was 19.9 µM. The GI50 (ACHN renal) was 4.29 µM, the TGI (ACHN renal) was 18.3 µM and the GI50 (BT-549 breast) was 0.597 µM. It also gave a TGI (BT-549 breast) of 2.29 µM, a GI50 (CAKI-1 renal) of 3.37 µM and a TGI (CAKI-1 renal) of 16.4 µM. It also gave a GI50 (COLO 205 colon) of 0.635 µM, a TGI (COLO 205 colon) of 3.89 µM and a GI50 (DU-145 prostate) of 5.22 µM. The TGI (DU-145 prostate) was 20.7 µM, the GI50 (EKVX NSCLC) was 3.23 µM and the TGI (EKVX NSCLC) was 14.7 µM. It also gave a GI50 (HCC-2998 colon) of 11 µM, a TGI (HCC-2998 colon) of 27.4 µM and a GI50 (HCT-116 colon) of 1.77 µM. For the same compound, the TGI (HCT-116 colon) was 18.6 µM, the GI50 (HCT-15 colon) was 3.41 µM and the TGI (HCT-15 colon) was 18.9 µM. For the same compound, the GI50 (HL-60(TB) leukemia) was 0.416 µM, the TGI (HL-60(TB) leukemia) was 15 µM and the GI50 (HOP-62 NSCLC) was 2.32 µM. For the same compound, the TGI (HOP-62 NSCLC) was 16.5 µM, the GI50 (HOP-92 NSCLC) was 2.32 µM and the TGI (HOP-92 NSCLC) was 11 µM. It also gave a GI50 (HS 578T breast) of 2.47 µM, a TGI (HS 578T breast) of 7.17 µM and a GI50 (HT29 colon) of 3.1 µM. The TGI (HT29 colon) was 14.6 µM, the GI50 (IGROV1 ovarian) was 4.66 µM and the TGI (IGROV1 ovarian) was 18.2 µM. It also gave a GI50 (K-562 leukemia) of 0.214 µM, a TGI (K-562 leukemia) of 1.08 µM and a GI50 (KM12 colon) of 0.118 µM. It also gave a TGI (KM12 colon) of 10.8 µM, a GI50 (LOX IMVI melanoma) of 2.99 µM and a TGI (LOX IMVI melanoma) of 10.8 µM. The GI50 (M14 melanoma) was 4.3 µM, the TGI (M14 melanoma) was 17 µM and the GI50 (MALME-3M melanoma) was 2.7 µM. The TGI (MALME-3M melanoma) was 10.8 µM, the GI50 (MCF7 breast) was 2.9 µM and the TGI (MCF7 breast) was 16.3 µM. For the same compound, the GI50 (MDA-MB-231 breast) was 3.41 µM, the TGI (MDA-MB-231 breast) was 17.9 µM and the GI50 (MDA-MB-435 melanoma) was 2.01 µM. The TGI (MDA-MB-435 melanoma) was 13.3 µM, the GI50 (MDA-MB-468 breast) was 1.07 µM and the TGI (MDA-MB-468 breast) was 16.6 µM. The GI50 (MOLT-4 leukemia) was 0.252 µM, the TGI (MOLT-4 leukemia) was 1.27 µM and the GI50 (NCI-H226 lung) was 1.32 µM. For the same compound, the TGI (NCI-H226 lung) was 4.89 µM, the GI50 (NCI-H23 lung) was 2.69 µM and the TGI (NCI-H23 lung) was 13.6 µM. It also gave a GI50 (NCI-H322M lung) of 11.7 µM, a TGI (NCI-H322M lung) of 27.8 µM and a GI50 (NCI-H460 NSCLC) of 0.543 µM. For the same compound, the TGI (NCI-H460 NSCLC) was 10.9 µM, the GI50 (NCI-H522 lung) was 0.529 µM and the TGI (NCI-H522 lung) was 5.51 µM. For the same compound, the GI50 (NCI/ADR-RES ovarian) was 13.8 µM, the TGI (NCI/ADR-RES ovarian) was 26.9 µM and the GI50 (OVCAR-3 ovarian) was 11.6 µM. The TGI (OVCAR-3 ovarian) was 24.5 µM, the GI50 (OVCAR-4 ovarian) was 21.7 µM and the TGI (OVCAR-4 ovarian) was 37.5 µM. For the same compound, the GI50 (OVCAR-5 ovarian) was 3.48 µM, the TGI (OVCAR-5 ovarian) was greater than 100 µM and the GI50 (PC-3 prostate) was 5.28 µM. It also gave a TGI (PC-3 prostate) of 21.2 µM, a GI50 (RPMI-8226 leukemia) of 1.17 µM and a TGI (RPMI-8226 leukemia) of 11.1 µM. The GI50 (RXF 393 renal) was 6.96 µM, the TGI (RXF 393 renal) was 19.7 µM and the GI50 (SF-268 CNS) was 4.18 µM. For the same compound, the TGI (SF-268 CNS) was 19.5 µM, the GI50 (SF-295 CNS) was 2.12 µM and the TGI (SF-295 CNS) was 17.3 µM. It also gave a GI50 (SF-539 CNS) of 1.53 µM, a TGI (SF-539 CNS) of 5.75 µM and a GI50 (SK-MEL-2 melanoma) of 14.5 µM. It also gave a TGI (SK-MEL-2 melanoma) of 27.7 µM, a GI50 (SK-MEL-28 melanoma) of 11.7 µM and a TGI (SK-MEL-28 melanoma) of 24 µM. The GI50 (SK-MEL-5 melanoma) was 5.38 µM, the TGI (SK-MEL-5 melanoma) was 19.4 µM and the GI50 (SK-OV-3 ovarian) was 7.59 µM. The TGI (SK-OV-3 ovarian) was 21 µM, the GI50 (SN12C renal) was 1.88 µM and the TGI (SN12C renal) was 10.6 µM. It also gave a GI50 (SNB-19 CNS) of 12.1 µM, a TGI (SNB-19 CNS) of 27.7 µM and a GI50 (SNB-75 CNS) of 3.4 µM. The TGI (SNB-75 CNS) was 9.95 µM, the GI50 (SR leukemia) was 0.18 µM and the TGI (SR leukemia) was 0.32 µM. It also gave a GI50 (SW-620 colon) of 3.1 µM, a TGI (SW-620 colon) of 14.1 µM and a GI50 (T-47D breast) of 17.7 µM. The TGI (T-47D breast) was 31.9 µM, the GI50 (TK-10 renal) was 4.91 µM and the TGI (TK-10 renal) was 22.7 µM. The GI50 (U251 glioblastoma) was 11.2 µM, the TGI (U251 glioblastoma) was 23.7 µM and the GI50 (UACC-257 melanoma) was 5.94 µM. It also gave a TGI (UACC-257 melanoma) of 17.8 µM, a GI50 (UACC-62 melanoma) of 7.66 µM and a TGI (UACC-62 melanoma) of 20.8 µM. For the same compound, the GI50 (UO-31 renal) was 2.69 µM and the TGI (UO-31 renal) was 17.2 µM.
